In ChEMBL document CHEMBL5053493, “Design and synthesis of novel orally selective and type II pan-TRK inhibitors to overcome mutations by property-driven optimization” (Eur J Med Chem, 2021):
Blank lines part the entries; values can stand above or below the compound they belong to.

What was measured:
[1] = Inhibition of TRKA L657M mutant (unknown origin) in presence of [gamma-33P]ATP by hotspot kinase assay; set-up: species or system Homo sapiens
[2] = Inhibition of TRKA G595R/L657M double mutant(unknown origin) in presence of [gamma-33P]ATP by hotspot kinase assay; set-up: species or system Homo sapiens
[3] = Inhibition of TRKA […]/G667C double mutant (unknown origin) in presence of [gamma-33P]ATP by hotspot kinase assay; set-up: species or system Homo sapiens
[4] = Inhibition of TRKA F589L mutant (unknown origin) in presence of [gamma-33P]ATP by hotspot kinase assay; set-up: species or system Homo sapiens
[5] = Inhibition of TRKC G696A mutant (unknown origin) in presence of [gamma-33P]ATP by hotspot kinase assay; set-up: species or system Homo sapiens
[6] = Inhibition of TRKC L686M mutant (unknown origin) in presence of [gamma-33P]ATP by hotspot kinase assay; set-up: species or system Homo sapiens
[7] = Inhibition of TRKA G595R/A608D double mutant (unknown origin) bin presence of [gamma-33P]ATP by hotspot kinase assay; set-up: species or system Homo sapiens
[8] = Inhibition of TRKC G623R mutant (unknown origin) in presence of [gamma-33P]ATP by hotspot kinase assay; set-up: species or system Homo sapiens
KM12 = test: Antiproliferative activity against human KM12 cells assessed as reduction in cell viability measured after 72 hrs by MTS assay
[9] = molecular target: NT-3 growth factor receptor (Homo sapiens, UniProt Q16288); test: Inhibition of TRKC (unknown origin)
[10] = molecular target: BDNF/NT-3 growth factors receptor (Homo sapiens, UniProt Q16620); test: Inhibition of TRKB (unknown origin)
Aurora kinase A = molecular target: T1, Aurora kinase A (Homo sapiens, UniProt O14965); test: biochemical
T1 sequence (O14965 whole entry): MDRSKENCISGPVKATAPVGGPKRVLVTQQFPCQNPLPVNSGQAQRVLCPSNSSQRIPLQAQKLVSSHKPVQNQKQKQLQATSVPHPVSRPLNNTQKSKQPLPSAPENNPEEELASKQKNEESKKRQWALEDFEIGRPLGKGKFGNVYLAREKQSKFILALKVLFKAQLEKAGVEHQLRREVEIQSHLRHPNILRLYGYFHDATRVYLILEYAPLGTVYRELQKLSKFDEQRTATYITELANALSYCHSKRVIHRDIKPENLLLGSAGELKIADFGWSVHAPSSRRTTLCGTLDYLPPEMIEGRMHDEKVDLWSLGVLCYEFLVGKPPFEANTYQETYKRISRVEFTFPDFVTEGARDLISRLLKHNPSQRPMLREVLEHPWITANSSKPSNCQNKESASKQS
Description: Inhibition of GST-tagged AURA Ser123 to 401 residues) (unknown origin) expressed in Sf9 insect cells using tetra-LLRASLG peptide as substrate incubated for 90 mins in presence of ATP

[11] = molecular target: T2, High affinity nerve growth factor receptor (Homo sapiens, UniProt P04629)
Aurora kinase B = Aurora kinase B (Homo sapiens, UniProt Q96GD4); test: Inhibition of recombinant full length His-tagged human AURB expressed in baculovirus expression system using tetra-LLRASLG peptide as substrate incubated for 180 mins in presence of ATP; set-up: species or system Sf9
[12] = molecular target: T2, High affinity nerve growth factor receptor; remark: listed apart in the source
Description: Inhibition of wildtype human TRKA using poly (Glu,Tyr) 4:1 as substrate in presence of [gamma-33P]ATP by hotspot kinase assay

T2 sequence (P04629 whole entry): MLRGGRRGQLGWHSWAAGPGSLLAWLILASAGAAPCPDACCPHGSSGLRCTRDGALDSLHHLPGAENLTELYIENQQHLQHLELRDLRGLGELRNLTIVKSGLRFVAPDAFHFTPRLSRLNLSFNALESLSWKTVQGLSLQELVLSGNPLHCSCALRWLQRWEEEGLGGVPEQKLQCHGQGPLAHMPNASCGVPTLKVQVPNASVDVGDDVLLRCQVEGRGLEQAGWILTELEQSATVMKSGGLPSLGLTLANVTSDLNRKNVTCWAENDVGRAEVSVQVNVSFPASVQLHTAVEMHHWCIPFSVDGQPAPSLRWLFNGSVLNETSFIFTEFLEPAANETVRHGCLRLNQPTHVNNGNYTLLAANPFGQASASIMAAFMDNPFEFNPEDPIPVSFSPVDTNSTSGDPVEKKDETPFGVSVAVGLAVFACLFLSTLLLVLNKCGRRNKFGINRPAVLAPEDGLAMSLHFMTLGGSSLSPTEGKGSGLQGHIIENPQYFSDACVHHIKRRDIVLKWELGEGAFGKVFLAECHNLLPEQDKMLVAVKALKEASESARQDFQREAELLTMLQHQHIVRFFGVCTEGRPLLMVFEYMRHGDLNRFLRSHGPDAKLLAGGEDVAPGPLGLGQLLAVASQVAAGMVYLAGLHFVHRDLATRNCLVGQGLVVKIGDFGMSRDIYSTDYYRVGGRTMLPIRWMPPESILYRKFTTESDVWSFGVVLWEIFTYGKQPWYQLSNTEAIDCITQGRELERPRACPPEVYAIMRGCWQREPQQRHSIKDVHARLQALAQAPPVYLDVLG
Sequence of Aurora kinase B (Q96GD4 whole entry): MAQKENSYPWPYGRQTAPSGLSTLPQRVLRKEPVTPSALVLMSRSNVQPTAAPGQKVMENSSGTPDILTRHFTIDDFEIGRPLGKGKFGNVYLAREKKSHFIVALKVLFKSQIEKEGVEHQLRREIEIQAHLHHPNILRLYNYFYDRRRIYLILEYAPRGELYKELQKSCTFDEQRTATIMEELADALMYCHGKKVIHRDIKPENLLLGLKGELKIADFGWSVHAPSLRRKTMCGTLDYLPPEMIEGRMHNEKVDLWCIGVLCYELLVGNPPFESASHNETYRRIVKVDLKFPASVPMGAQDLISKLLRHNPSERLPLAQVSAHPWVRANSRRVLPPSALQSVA
Sequence of BDNF/NT-3 growth factors receptor (Q16620 whole entry): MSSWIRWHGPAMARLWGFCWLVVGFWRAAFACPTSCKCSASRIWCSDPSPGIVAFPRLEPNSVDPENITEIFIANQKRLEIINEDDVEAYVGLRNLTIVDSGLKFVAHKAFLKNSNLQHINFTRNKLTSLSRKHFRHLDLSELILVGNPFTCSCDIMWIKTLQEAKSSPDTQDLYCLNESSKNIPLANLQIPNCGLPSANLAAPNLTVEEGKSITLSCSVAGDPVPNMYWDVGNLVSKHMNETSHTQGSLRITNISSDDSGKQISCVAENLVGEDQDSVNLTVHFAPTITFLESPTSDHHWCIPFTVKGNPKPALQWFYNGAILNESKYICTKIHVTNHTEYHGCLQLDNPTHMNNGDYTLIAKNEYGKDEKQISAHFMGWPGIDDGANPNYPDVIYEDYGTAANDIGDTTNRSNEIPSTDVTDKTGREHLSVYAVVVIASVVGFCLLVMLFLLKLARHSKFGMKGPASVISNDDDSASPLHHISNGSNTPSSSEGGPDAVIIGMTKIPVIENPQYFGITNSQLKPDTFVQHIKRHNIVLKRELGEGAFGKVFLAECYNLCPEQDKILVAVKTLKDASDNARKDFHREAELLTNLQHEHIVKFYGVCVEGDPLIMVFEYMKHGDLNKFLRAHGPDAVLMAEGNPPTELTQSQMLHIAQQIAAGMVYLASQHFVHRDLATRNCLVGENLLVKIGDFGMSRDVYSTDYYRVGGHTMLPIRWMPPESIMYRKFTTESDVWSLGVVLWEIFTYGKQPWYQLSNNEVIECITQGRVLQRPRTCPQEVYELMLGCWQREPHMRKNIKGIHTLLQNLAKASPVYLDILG
Sequence of NT-3 growth factor receptor (Q16288 whole entry): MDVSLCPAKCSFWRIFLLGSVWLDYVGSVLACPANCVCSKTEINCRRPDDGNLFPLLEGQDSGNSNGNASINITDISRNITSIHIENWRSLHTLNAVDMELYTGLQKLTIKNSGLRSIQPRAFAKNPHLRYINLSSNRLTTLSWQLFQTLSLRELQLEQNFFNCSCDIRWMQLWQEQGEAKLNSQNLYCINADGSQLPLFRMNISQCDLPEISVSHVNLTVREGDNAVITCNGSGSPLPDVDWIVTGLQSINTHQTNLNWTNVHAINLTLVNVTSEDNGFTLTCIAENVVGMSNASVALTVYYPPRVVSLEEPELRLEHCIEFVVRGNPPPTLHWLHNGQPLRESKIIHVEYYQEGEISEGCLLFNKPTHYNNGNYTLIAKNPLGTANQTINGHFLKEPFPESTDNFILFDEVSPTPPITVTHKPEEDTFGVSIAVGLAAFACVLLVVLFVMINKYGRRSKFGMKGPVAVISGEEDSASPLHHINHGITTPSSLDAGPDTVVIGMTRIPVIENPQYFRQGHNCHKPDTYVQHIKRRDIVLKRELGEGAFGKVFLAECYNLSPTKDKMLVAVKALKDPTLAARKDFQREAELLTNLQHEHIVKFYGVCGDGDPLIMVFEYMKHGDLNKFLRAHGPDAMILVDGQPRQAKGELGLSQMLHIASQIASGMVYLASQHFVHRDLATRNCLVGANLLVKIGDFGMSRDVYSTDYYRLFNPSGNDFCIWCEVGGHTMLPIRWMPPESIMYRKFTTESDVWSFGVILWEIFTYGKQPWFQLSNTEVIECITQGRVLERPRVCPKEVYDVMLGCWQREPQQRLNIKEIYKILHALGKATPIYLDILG

Compound: O=C(Nc1cnn2ccc(N3CCC[C@H]3c3cc(F)ccc3F)nc12)N1CC[C@@H](O)C1
- IC50 [1]: 20.7 nM
- IC50 [2]: 2510 nM
- IC50 [3]: > 10000 nM
- IC50 [4]: 52.1 nM
- IC50 [5]: 3.28 nM
- IC50 [6]: 150 nM
- IC50 [7]: 80.2 nM
- IC50 [8]: 209 nM

Compound: CN(C)CCCOc1ccc2c(NCCc3cnc(NC(=O)Nc4cccc(Cl)c4)s3)ncnc2c1
- IC50 (KM12; Homo sapiens, KM12, 72 h): > 10000 nM
- IC50 [9]: 0.21 nM
- IC50 [10]: 1.78 nM
- IC50 (Aurora kinase A): 5.6 nM
- IC50 [11]: 36.8 nM

Compound: CCOc1cc2c(NCCc3ccc(NC(=O)Nc4ccccc4)cc3)ncnc2cc1F
- IC50 (KM12; km12): 324 nM
- IC50 (Aurora kinase A): 65.6 nM

Compound: CCOc1cc2ncnc(NCCc3ccc(NC(=O)Nc4cccc(F)c4)cc3)c2cc1F
- IC50 (Aurora kinase A): 6 nM

Compound: O=C(Nc1ccccc1)Nc1ccc(CCNc2ncnc3cc(F)c(F)cc23)cc1
- IC50 (KM12; Homo sapiens, KM12, 72 h): 1520 nM

Compound: CCOc1cc2ncnc(NCCc3ccc(NC(=O)Nc4ccccc4)cc3)c2cc1F
- IC50 (KM12; km12): 324 nM
- IC50 (Aurora kinase A): 29.2 nM
- IC50 [11]: > 9000 nM

Compound: CCOc1cc2ncnc(NCCc3ccc(NC(=O)Nc4cccc(Cl)c4)cc3)c2cc1F
- IC50 (Aurora kinase A): 26.9 nM

Compound: CCOc1cc2ncnc(NCc3ccc(NC(=O)Nc4ccccc4)cc3)c2cc1F
- IC50 (KM12; Homo sapiens, KM12, 72 h): 2400 nM
- IC50 (Aurora kinase A): 8 nM

Compound: COc1cc2c(Oc3ccc(NC(=O)C4(C(=O)Nc5ccc(F)cc5)CC4)cc3F)ccnc2cc1OCCCN1CCOCC1 [FORETINIB]
- IC50 [12]: 2.97 nM

Second part, led by results:

- IC50 (Aurora kinase A): 338 nM
Compound: CCOc1cc2ncnc(Nc3ccc(NC(=O)Nc4ccccc4)cc3)c2cc1F
- IC50 (KM12; Homo sapiens, KM12, 72 h): 2020 nM

- IC50 (Aurora kinase A): 108 nM
Compound: CCOc1cc2c(NCCc3ccc(NC(=O)Nc4cccc(Cl)c4)cc3)ncnc2cc1F

- IC50 (Aurora kinase A): 156 nM
Compound: CCOc1cc2ncnc(Nc3ccc(NC(=O)Nc4cccc(Cl)c4)cc3)c2cc1F

- IC50 (Aurora kinase A): 352 nM
- IC50 (Aurora kinase B): 512 nM
Compound: CCOc1cc2ncnc(NCCc3ccc(NC(=O)Nc4cc(Cl)ccc4OC)cc3)c2cc1F

- IC50 (Aurora kinase A): 23 nM
Compound: COc1cc2ncnc(NCCc3ccc(NC(=O)Nc4ccccc4)cc3)c2cc1OC

- IC50 (Aurora kinase A): 63.2 nM
Compound: CCOc1cc2ncnc(NCCc3ccc(NC(=O)Nc4cccc(C(F)(F)F)c4)cc3)c2cc1F

- IC50 (Aurora kinase A): 2 nM
Compound: CCOc1cc2ncnc(NCc3ccc(NC(=O)Nc4cccc(Cl)c4)cc3)c2cc1F
- IC50 (KM12; Homo sapiens, KM12, 72 h): 1270 nM

- IC50 (Aurora kinase A): 140 nM
Compound: O=C(Nc1ccccc1)Nc1ccc(CCNc2ncnc3ccccc23)cc1

- IC50 (Aurora kinase A): 454 nM
- IC50 (Aurora kinase B): 548 nM
Compound: CCOc1cc2ncnc(NCCc3ccc(NC(=O)Nc4cc(C(F)(F)F)ccc4OC)cc3)c2cc1F

- IC50 (Aurora kinase A): 349 nM
Compound: CCOc1cc2ncnc(NCCc3ccc(NC(=O)Nc4ccc(Cl)c(C(F)(F)F)c4)cc3)c2cc1F

- IC50 (Aurora kinase A): 44 nM
Compound: CCOc1cc2ncnc(NCCc3ccc(NC(=O)Nc4ccc(F)c(Cl)c4)cc3)c2cc1F

- IC50 [12]: 72.3 nM
Compound: COc1cc2nccc(Oc3ccc(NC(=O)C4(C(=O)Nc5ccc(F)cc5)CC4)cc3)c2cc1OC [CABOZANTINIB]
